Assay results as given in patent publication US20260325500A1, “METHODS AND COMPOSITIONS FOR TREATING ACUTE STRESS DISORDER” (BioXcel Therapeutics, Inc., priority 2022, published 2026).
Entries after “also recorded” stand apart in the source; their conditions may differ. Structures can show the parent of a compound that is named as a salt.

Experiments:
[1] = system: Yohimbine-induced noradrenergic mediated hyperarousal in Wistar rats; experiment: Elevated plus maze, yohimbine-induced noradrenergic mediated hyperarousal (Example 2); assay type: in vivo
Text: Background: Yohimbine is an alpha 2-adrenergic receptor antagonist reported to trigger panic attacks in healthy volunteers and to exacerbate symptoms in patients with panic disorder (Charney et al., 1992 Acta Psychiatr Scand., Vol. 86 (4): 273-282). Peripheral administration of Yohimbine causes noradrenergic mediated hyperarousal in rats as assessed by the EPM paradigm.
Rationale: The drug yohimbine is a natural product used to test a specific pathway, noradrenergic-mediated hyper-arousal. It is well established that yohimbine is an alpha2-adrenergic receptor antagonist and activates the locus coeruleus (LC) and increases noradrenergic signaling (the opposite of alpha2-adrenergic agonists like dexmedetomidine and clonidine). Increased LC activity and noradrenergic signaling makes animals anxious and agitated which can be measured by using the elevated plus maze. In the elevated plus maze, rodents were in the closed arms and explored the open arms depending on their anxiety and agitation (rats and mice normally explore their environments extensively when calm). […] This behavior is correlated to increased level of anxiety caused by noradrenergic mediated hyperarousal.
Animal groups: Male: Wistar rats were used in this study and were randomly divided to different experimental groups (12 animals per group).
Study drugs: Four test drugs with different mechanisms of action linked to agitation were chosen to find drugs that are effective in reducing yohimbine-induced agitation: (1) Fluvoxamine (selective serotonin reuptake inhibitor) (2) Dextromethorphan (modulator of NMDA signals) (3) Diazepam (modulator of gamma-aminobutyric acid (GABA) as a positive control) and (4) Latrepirdine (complex pharmacology).
The test drugs were procured from Sigma or Tocris. dextromethorphan from Sigma Aldrich, Cat No. D9684; latrepirdine from Sigma Aldrich, Cat No. D6196 or Tocris Cat No. 3201 diazepam and fluvoxamine Sigma Aldrich, Cat No. F2802 or Tocris, Cat No. 1033. All these test drugs were formulated in sufficient quantity in 0.9% saline except for fluvoxamine, which was formulated in 30% ethanol in 0.9% saline.
Apparatus: Elevated Plus Maze (EPM) was used (FIG. 1). The maze consisted of two closed arms and two open arms forming a cross, with a square center platform. All visible surfaces were made of black acrylic. Each arm of the maze was placed on a support column above the floor. Antistatic black vinyl curtains used for surrounding the EPM to make an enclosure.
Study design and dosing: Yohimbine was administered by intraperitoneal injection (i.p.) at a dose of 2.5 mg/kg (30 minutes prior to study) to induce agitation and the effects were assessed 30 minutes after yohimbine injection by measuring the number of open arm entries and exploration time in the EPM. The test drugs fluvoxamine, dextromethorphan and latrepirdine dihydrochloride hydrate were administered through intramuscular route and, diazepam through intraperitoneal route into the hindleg thigh muscle of rats (60 minutes prior to study; 30 minutes prior to yohimbine administration). Diazepam was injected 30 minutes intraperitonially prior to the assay i.e. along with yohimbine administration. The study design is illustrated in FIG. 2 and table 5.
After the test drug administration, the rat was placed on the platform opposite a closed arm. The number of entries and the time spent in each arm were recorded during a 5 min period. The animal was considered as entered in arm when it placed its four paws into the arm.
Statistical analysis: Analysis of variance (ANOVA) was performed on the result data. Fisher's PLSD was used for pairwise comparisons and p value≤0.05 was considered significant.

[2] = system: motor activity (locomotion) and sedation behavior of male Swiss albino mice; experiment: Open field test, motor activity (locomotion) and sedation (Example 7); assay type: in vivo
Procedure: Rationale: The spontaneous locomotor activity in terms of total distance traveled is measured in open field test. Comparatively lower distance traveled would indicate either less motor activity or sedation.
Animal groups: Swiss albino male mice (6-7 weeks old; 25-40 g weight) were distributed in 10 different experimental groups with 12 […] per group as illustrated in Table
Study drugs: The test substances (Dexmedetomidine hydrochloride and latrepirdine dihydrochloride hydrate) were dissolved in 0.9% normal saline which served as the vehicle.
Study design and dosing: Mice were brought to the laboratory and allowed to acclimatize to the environment for at least 7 days. The open field test was done in lighting conditions of 40 lux light. The mice were dosed as per the grouping in Table 10. After a post dose interval of 60 minutes, 4 mice from a group were placed in the open field and the movement was tracked for a period of 30 minutes. Once the trial was over the mice were removed from the open field and the arena was cleaned. Following this, next set of 4 mice were placed in the arena and tracked.
Statistical analysis: The distance travelled for a period of 30 minutes was analyzed in bins of 5 minutes and was compared with that of the vehicle group using one-way ANOVA followed by Dunnett's test. All statistical analyses were performed using Graph pad prism software package (Version 7 or Higher) and p value below 0.05 was considered as significant.

[3] = 3 mg/kg and 10 mg/kg, i.m., 60 min prior, yohimbine 2.5 mg/kg i.p.

SMILES | open arm entries and time spent, comparison with diazepam ([1]; 3 mg/kg and 10 mg/kg, i.m. versus diazepam 1 mg/kg, i.p.) | number of open arm entries [1, 3] | time spent in the open arms (exploration time) [1, 3] | yohimbine-induced noradrenergic mediated hyperarousal ([1]; latrepirdine 3 mg/kg and 10 mg/kg, i.m., yohimbine 2.5 mg/kg i.p.) | distance traveled ([2]; 1 mg/kg, 3 mg/kg and 10 mg/kg, i.p.) | locomotion and sedation ([2]; latrepirdine, open field test)
Cc1ccc2c(c1)c1c(n2CCc2ccc(C)nc2)CCN(C)C1 [latrepirdine dihydrochloride hydrate] | comparable to diazepam | significantly increased number of open arm entries; also recorded: significantly increased the number of entries into the open arms | increased exploration time; also recorded: significantly increased | reversed yohimbine-induced noradrenergic mediated hyperarousal | did not show any significant reduction in distance traveled | 
Cc1ccc2c(c1)c1c(n2CCc2ccc(C)nc2)CCN(C)C1 [latrepirdine, 2,8-dimethyl-5-[2-(6-methylpyridin-3-yl)ethyl]-3,4-dihydro-1H-pyrido[4,3-b]indole] |  |  |  |  |  | did not cause any reduction in locomotion nor caused sedation
